{"source": "patent US20250161245A1", "about": "“A MIXTURE OF UREA, BIURET AND N-CONTAINING BY-PRODUCTS CREATED DURING BIURET PRODUCTION AS A DIETARY NON-PROTEIN NITROGEN-SOURCE FOR RUMINANTS AND USES THEREOF” (Yara International ASA, priority 2022, published 2025)", "key": {"[1]": {"assay": "animal performance of steers with NPN supplementation (Example 3)", "assay_type": "in vivo, crossbred yearling steers"}, "ruminal fluid [2]": {"tested_on": "ruminal fluid", "assay": "in vitro batch culture incubations: VFA, ammonia-N, pH (Example 4)", "assay_type": "cell-based, Angus crossbred steers", "conditions": "corn silage-based diet", "protocol": "In this example, an in vitro assay was performed using batch culture incubations, aiming to simulate rumen fermentation.\nTwo ruminally cannulated Angus crossbred steers (808.8±36.3 kg body weight) were used as ruminal fluid donors for the in vitro batch culture incubations. The steers were fed a corn silage and gin trash diet (70% and 30% on a dry matter basis, respectively) ad libitum at least 35 days before collecting ruminal fluid to perform the in vitro incubations. Each steer received a NPN-mixture equivalent to 100 g of urea per day comprised of an equal amount of N from the different NPN sources to adapt the rumen microbial community. Thus, each steer was fed daily 33 g of urea (46 wt. % N) or 37 g of a urea-biuret mixture according to the present disclosure (UB) comprising 41 wt. % N. These amounts were mixed in with the feed diet every two days.\nThe in vitro batch culture incubations were conducted as a randomized complete block design using 70 wt. % corn silage and 30 wt. % gin trash on a dry matter basis conserving the diet characteristics used during the animal adaptation period. The treatments were designed to be isonitrogenous (=having the same amount of dietary nitrogen) and equivalent to 1 wt. % of urea inclusion. The NPN treatments were consequently as follows: • Control without NPN-supplementation (“control”); • 100 wt % urea (Rumisan®) (“urea”); • 100 wt % of a urea/biuret mixture according to the present application (“UB”).\nThe in vitro incubations were conducted on three separate days (replicates). A representative sample of digesta was collected from different places in the rumen of ruminally cannulated steers and strained through 4 layers of cheesecloth, placed in pre-warmed thermos containers, and transported to the laboratory within 30 minutes after the collection. In the laboratory, the ruminal fluid from the two steers was maintained under constant CO2-flux and was combined in equal proportions. This combined ruminal fluid was mixed with McDougall's buffer (McDougall, 1948) with and without 0.077 g/liter of 10 wt. % ammonium sulfate enriched with ^15N in relation 1:4, and it was used as an inoculum. Two bottles of 500 ml fitted with a side arm and a rubber septum were incubated per treatment. The bottles contained 5.6 g of substrate dry matter and 400 ml of ^15N enriched inoculum, and were incubated for 24 hours at 39° C. with an agitation of 60 rpm to monitor gas production kinetics using an Ankom Gas Monitoring System from Ankom Technologies, Fairport, New York. Also, one 500-ml bottle without 15N enriched inoculum was incubated to determine the basal ^15N enrichment. At 12 hours of incubation, two samples of 10 ml of rumen fluid were collected from each bottle through the septa port using a 20-ml syringe. These samples were acidified by adding 10 μl of a 20 vol/vol % of H2SO4-solution to each 10-ml sample, and frozen at minus 20° C. until further analysis. At the end of the 24 hours incubation, the final pH was recorded, the bottles were placed on ice to prevent further microbial fermentation and two 10-ml samples were collected and acidified by adding 20 μl of a 20 vol/vol % of H2SO4-solution and were frozen at minus 20° C. until further analysis. The remaining fermentation content was thereafter agitated at 60 rpm for 30 seconds and divided into two subsamples. […]"}, "rumen microbiota": {"tested_on": "rumen microbiota", "assay": "Gas Production Test, in vitro rumen fermentation model (Example 1)", "assay_type": "cell-based", "conditions": "15 mg N per flask, 72 hours incubation", "protocol": "The in vitro model used to simulate rumen digestion and utilization of the products is the Gas Production Test protocol, adapted for protein digestibility, as described in more detail in the following paragraph.\nApproximately 1 liter of rumen fluid was collected from two different rumen-fistulated animals in the morning. Rumen fluid was strained through a cheesecloth, kept at 39° C. under CO2 and then diluted 1:19 with a nitrogen-free buffer and mineral solution containing 10.03 g NaHCO3, 1.43 g Na2HPO4, 1.55 g KH2PO4, 0.15 g MgSO4·7H2O, 0.52 g Na2S, 0.017 g CaCl2·2H2O, 0.015 g MnCl2·4H2O, 0.002 g […], 0.012 g FeCl3·6H2O and 0.125 mg resazurin per liter.\nTo ensure the rumen fluid was depleted of free nitrogen and to ensure nitrogen would be the limiting factor for the microbial growth at the start of the experiment, the buffered rumen fluid was pre-incubated for 4 hours at 39° C. with a carbohydrate overload of glucose, xylose and soluble starch, each at 3.33 g/l. During this pre-incubation, all nitrogen available in the rumen fluid would be incorporated into bacterial protein and other bacterial nitrogen-containing components.\nEach product was weighed into different glass bottles on an isonitrogenous base, providing 15 mg N per flask. Then, 60 ml of the pre-incubated buffered rumen fluid was added, under continuous flushing with CO2. Flasks were closed with rubber stoppers and placed in a shaking water bath with 50 movements per minute at 39° C. to start the incubation period. The gas production of each flask was recorded continuously for 72 hours using a fully automated system. All test products including a blank (i.e. no product added to the flask of rumen fluid) were tested in one run in triplicate.\nThe cumulative gas production was measured continuously for 72 hours."}, "ruminal fluid [3]": {"tested_on": "ruminal fluid", "assay": "in vitro methane production, batch culture (Example 4)", "assay_type": "cell-based, Angus crossbred steers", "conditions": "corn silage-based diet, 24 hours incubation", "protocol": "The amount of methane produced was determined by measuring total gas production and the contribution of methane to it. The production of gas was recorded using an Ankom Gas Monitoring System from Ankom Technologies. This system was adapted to 500 ml bottles during the entire fermentation process. The kinetics of the production was fitted to a Gompertz model to determine the rate of the total maximal gas production (M), fractional rate of gas produced (kf) and lag phase (L). A gas subsample was analyzed to measure methane concentration and calculate the total methane production during the fermentation. The concentration of methane was determined using a gas chromatograph Agilent 7820 GC from Agilent Technologies with flame ionization and a capillary column (Plot Fused Silica 25 m×0.32 mm, coating Molsieve 5A, Varian CP 7536 from Varian Inc.)."}, "[4]": {"conditions": "12 hours of incubation, equivalent to 1 wt. % urea"}}, "data": [{"smiles": "NC(N)=O", "note": "[Urea, urea]", "values": [{"measurement": "ADG", "setting": "[1]; days 0-14", "value": 0.78, "unit": "kg"}, {"measurement": "ADG", "setting": "[1]; days 0-28", "value": 0.81, "unit": "kg"}, {"measurement": "ADG", "setting": "[1]; days 0-42", "value": 1.02, "unit": "kg"}, {"measurement": "Ammonia-N", "setting": "ruminal fluid [2]; [4]", "value": 2.74, "unit": "mM"}, {"measurement": "Total VFA", "setting": "ruminal fluid [2]; [4]", "value": 31.77, "unit": "mM"}, {"measurement": "Ammonia-N", "setting": "ruminal fluid [2]; 24 hours of incubation", "value": 6.55, "unit": "mM"}, {"measurement": "Total VFA", "setting": "ruminal fluid [2]; 24 hours of incubation", "value": 40.96, "unit": "mM"}, {"measurement": "pH", "setting": "ruminal fluid [2]; 24 hours of incubation", "value": 6.38}, {"measurement": "maximum gas production rate", "setting": "rumen microbiota", "value": 17, "unit": "mL/h"}, {"measurement": "time after which gas production stopped / maximum cumulative gas production (end level) was reached", "setting": "rumen microbiota", "value": 30, "unit": "h"}, {"measurement": "lag period of cumulative gas production", "setting": "rumen microbiota; buffered rumen fluid, 39° C.", "value": "approximately 5 hours"}, {"measurement": "methane production per g organic matter digested", "setting": "ruminal fluid [3]", "value": 6.86, "unit": "mM/g OMd"}, {"measurement": "methane production per g organic matter incubated", "setting": "ruminal fluid [3]", "value": 1.23, "unit": "mM/g OMi"}]}]}
